We go through 5 compounds from patent publication US20110071100A1, “SULFOBETAINES FOR CANCER, OBESITY, MACULAR DEGENERATION, NEURODEGENERATIVE DISEASES” (TILTAN PHARMA LTD., priority 2008, published 2011).

In this test the test system is malignant (mammary carcinoma) tumor (EMT6/CTX). As to the kind of experiment: Tumor growth of malignant (mammary carcinoma) tumor (EMT6/CTX) in a mouse experimental model. It is filed as in vivo, CB6F1 male mice. To be noted: for effect on tumor growth, agent alone: i.p.; for inhibition of tumor growth, alone and in combination with Hamsa treatment (summary of experiments 1-4): SB-18 and CHAPS 40 mg/kg, SB-12 2.5 and 40 mg/kg. The protocol:
In order to determine the effect of SB-18, CHAPS, SB-12, SB-16-4 and SB-18-4 each alone and each in combination with 4 other agents (“Hamsa treatment”), on tumor growth of a malignant (mammary carcinoma) tumor (EMT6/CTX) in a mouse experimental model, six (6) experiments were carried out as described below:
CB6F1 male mice (a cross between Balbc and C57bl) at age of 7-8 weeks were anesthetized with Ketamine:Xelazine in a 0.85:0.15 ratio respectively, and diluted 1:1 with double distilled water (DDW) and injected i.m. in volume of 50 uL.
100 uL of EMT6/CTX cells 3.6×10^5 cells/mouse were injected subcutaneously (s.c.) to the anesthetized mice, after shaving their back (to enable accurate measurement of tumor-volume). The mice were divided into four groups, as outlined below, 6-8 animals in each group. The mice were marked with Picric acid on head (H), tail (T), head and tail (H&T), right leg (RL), left leg (LL), right and left legs (SY), back and blank and were individually monitored.
“Hamsa treatment” as used herein consists of the following active ingredients in the following concentrations: • Cimetidine 60 mg/kg (Farchemia s.r.l. Italy). • Diclofenac 30 mg/kg (Unique Pharma India). • Cyclophosphamide (CTX) 60 mg/kg (Hisun China) • Sulfasalazine (SSZ) (Farchemia s.r.l. Italy)—50 mg/kg on days of cytotoxic treatment, i.e. on days when cyclophosphamide and diclofenac are administered; 150 mg/kg on days of non-cytotoxic treatment, i.e. on days when no cyclophosphamide and disclofenac are administered.
The preparation and administration protocol of the Hamsa treatment is outlined in Table 1:
SB-12, CHAPS and SB-18 (HOPAX Chem. Mfg. Ltd Taiwan) were prepared separately as aqueous solutions, then mixed 1:1 with Vehicle or the cytotoxic or non-cytotoxic stage of the Hamsa treatment and twice the volume was injected i.p. Due to its lower solubility, SB-18 was dissolved by mild warming (˜45° C.) of its aqueous solution in the presence of 2% Solutol HS-15 (BASF-Germany). In groups that received SB-12, CHAPS or SB-18, this agent was injected daily. […]
SB-16-4 was first dissolved in DDW containing 2% Solutol HS-15 with heating to 40° C. to 8 mg/mL concentration. The stock solution was diluted with non-cytotoxic and cytotoxic treatments in 1:1 ratio.
SB-18-4 was first dissolved in DDW containing 4% Solutol HS-15 with heating to 40° C. to 8 mg/mL concentration. The stock solution was diluted with non-cytotoxic and cytotoxic treatments in 1:1 ratio
• 1. 7 mice received vehicle (DDW+2% Solutol—BASF, Germany) • 2. 8 mice received Hamsa treatment • 3. 8 mice received Hamsa treatment in combination with SB-18 (40 mg/kg). • 4. 6 mice received SB-18 in vehicle (40 mg/kg)
• 1. 7 mice received vehicle (DDW+2% Solutol—BASF, Germany) • 2. 8 mice received Hamsa treatment • 3. 7 mice received Hamsa treatment in combination with CHAPS (40 mg/kg). • 4. 7 mice received CHAPS in vehicle (40 mg/kg)
• 1. 7 mice received vehicle (DDW+2% Solutol—BASF, Germany) • 2. 6 mice received Hamsa treatment. • 3. 7 mice received Hamsa treatment with SB-12 (2.5 mg/kg). • 4. 7 mice received SB-12 in vehicle (2.5 mg/kg)
• 1. 7 mice received vehicle (DDW+2% Solutol—BASF, Germany) • 2. 7 mice received Hamsa treatment • 3. 7 mice received Hamsa treatment with SB-12 (40 mg/kg).
• 1. 6 mice received vehicle (DDW+2% Solutol—BASF, Germany) • 2. 6 mice received Hamsa treatment • 3. 7 mice received Hamsa treatment in combination with SB-16-4 (40 mg/kg). • 4. 5 mice received SB-16-4 in vehicle (40 mg/kg)
• 1. 7 mice received vehicle (DDW+2% Solutol—BASF, Germany) • 2. 8 mice received Hamsa treatment • 3. 7 mice received Hamsa treatment in combination with SB-18-4 (40 mg/kg). • 4. 7 mice received SB-18-4 in vehicle (40 mg/kg)
Five (5) or six (6) days after inoculation, when the tumor is already palpable, the treatment was initiated by intraperitoneally (i.p.) injection of the indicated treatment, in a volume of 250 uL, once a day, every day, 6 days a week. […]

Setting [1] is: 40 mg/kg i.p. daily + Hamsa treatment (cimetidine, sulfasalazine, diclofenac, cyclophosphamide).
The mark [2] stands for this setting: 40 mg/kg in vehicle, daily, s.c. EMT6/CTX tumor, tumor volume by caliper.

Regarding `CC(CCC(=O)NCCC[N+](C)(C)CCCS(=O)(=O)[O-])C1CCC2C3C(O)CC4CC(O)CCC4(C)C3CC(O)C12C` (centres unmarked) [CHAPS, 3-[3-(Cholamidopropyl)dimethylamonio]-1-propanesulfonate], the “inhibition of tumor growth, alone and in combination with Hamsa treatment (summary of experiments 1-4)” value (“inhibition of tumor growth” for short) was “inhibited tumor growth”. The “effect on tumor growth in combination with Hamsa treatment” value (“effect on tumor growth in combination” below) under setting [1] is on record as “has a synergistic effect”. In addition, the “effect on tumor growth, agent alone” value under setting [2] is “has an anti-tumor effect”.

For the compound `CCCCCCCCCCCC[N+](C)(C)CCCS(=O)(=O)[O-]` [SB-12, N-Dodecyl-N,N-Dimethyl-3-Ammonio-1-Propane Sulfonate, reference compound], the “inhibition of tumor growth” value is on record as “did not”. The “effect on tumor growth in combination” value (2.5 mg/kg i.p. daily + Hamsa treatment (low dose)) is listed as “slightly compromises the anti-tumor effect of the Hamsa treatment”. The “effect on tumor growth, agent alone” value (2.5 mg/kg in vehicle, daily (low dose)) is listed as “does not inhibit tumor growth, but rather enhances tumor-growth”. Also, the “effect on tumor growth in combination” value under setting [1] was “compromises the anti-tumor effect of Hamsa treatment”.

Regarding `CCCCCCCCCCCCCCCC[N+](C)(C)CCCCS(=O)(=O)[O-]` [SB-16-4, N,N-Dimethylhexadecyl-ammonium-1-(4-butylsulfonate)], the “effect on tumor growth in combination” value under setting [1] is “has a synergistic effect”. The “effect on tumor growth, agent alone” value under setting [2] is on record as “has an anti-tumor effect”.

For `CCCCCCCCCCCCCCCCCC[N+](C)(C)CCCS(=O)(=O)[O-]` [SB-18, N-Octadecyl-N,N-Dimethyl-3-Ammonio-1-Propane Sulfonate], the “inhibition of tumor growth” value is “inhibited tumor growth”. In addition, under setting [1], the “effect on tumor growth in combination” value is listed as “has a synergistic effect”. Besides, the “effect on tumor growth, agent alone” value under setting [2] was “has an anti-tumor effect”.

Regarding `CCCCCCCCCCCCCCCCCC[N+](C)(C)CCCCS(=O)(=O)[O-]` [SB-18-4, N,N-Dimethyloctadecyl-ammonium-1-(4-butylsulfonate)], the “effect on tumor growth in combination” value under setting [1] is on record as “has a synergistic effect”. The “effect on tumor growth, agent alone” value under setting [2] is “has an anti-tumor effect”.
